These molecules were tested against T1, AAK1 (Homo sapiens, UniProt Q2M2I8) (assay: HEK281 cell-based assay (phospho-mu2 Western blot in transfected HEK293F cells)). Conditions: 3 hours incubation, read-out: CBA IC50.
T1 construct: HA; expressed in transfected cells; host or cells: HEK293F
Experimental: HEK293F cells were cultured in media containing DMEM (Gibco, cat. #11965), 10% FBS (SAFC Biosciences, cat. #12103C), 1×GPS (glutamine, penicillin and streptomycin). On day one, cells were plated on a 10 cm dish so that they are ˜80% confluent at time of transfection. Roughly 12 million cells were in a 10 cm dish at time of transfection. On day two, each dish was transfected with 48 ug DNA and 144 ul Lipofectamine 2000 (Invitrogen, cat.#11668-019). The DNA was comprised of a mixture (per 10 cm dish) containing 3 ug AAK1/HA/pIRES (full length human, NCBI accession no. NP_055726.2), 45 μg Flag/AP2MI/pcDNA (full length human), and 1.5 ml OPTI-MEM. The Lipofectamine 2000 is made up of a mixture (per 10 cm dish) containing 144 μl Lipofectamine 2000 and 1.5 ml OPTI-MEM. Each mixture was transferred to individual 15 ml tubes and incubated at RT for 5 minutes, and then the two mixes were combined and incubated at RT for 20 minutes. Growth media was then aspirated from each 10 cm plate and replaced with 10 ml of DMEM+10% FBS (no GPS). Finally, 3 ml DNA/Lipofectamine mix was added to each 10 cm dish and mix gently followed by incubate of plate overnight at 37° C. and 5% CO2.
On day three, compounds were diluted in 100% DMSO at 1000× final concentration, followed by 3-fold serial dilutions for a total of 5 concentrations tested. Four compounds were tested per 10 cm dish. One ul of each compound dilution was then pipetted into a deep-well, 96-well plate, followed by addition of 500 μl DMEM+0.5% FBS into each well for a 2× final concentration of each compound. Cells were resuspended in a 10 cm dish by simple pipetting (HEK293 cells come off the plate that easy at this point) and then transferred to a 50 ml conical tube and pelleted by centrifugation at 1000 rpm for 5 min. Cell pellets were then resuspended in 2.75 ml DMEM+0.5% FBS per 10 cm dish and 100 μl of cell suspension transferred into each well of 96-well TC plate. Finally, 100 μl of 2× compound diluted in DMEM+0.5% FBS was then added into wells containing cell suspension for a 1× final concentration. Plates were then incubated at 37° C. and 5% CO2 for 3 hours followed by transferring of cell suspensions from each well into 12-tube PCR strips. The PCR strips were spun in a tip rack at 1000 rpm for 5 minutes to pellet cells and media was then removed by pipetting without disturbing the cell pellet.
To prepare for Western Blot analysis, cell pellets were resuspend in 40 ul 1×LDS-PAGE sample buffer (Invitrogen, cat.#NP0008)+2× Halt phophatase and protease inhibitor cocktail (Thermo Scientific, cat.#1861284), followed by sonicating each with microtip sonicator set at 5 for 8-10 seconds. Five ul of 10× NuPage Sample Reducing Agent (with 50 mM DTT) was to each sample followed by heat denaturing at 70 C for 10 min on PCR machine. A total of 10 μl per sample was loaded into each lane of a 4-20% Tris-Glycine Criterion 26-well gel (Biorad, cat.#345-0034) for the phospho-mu2 blot and 10 μl per lane in a 4-12% Bis-Tris (+MES buffer) NuPAGE 26-well gel (Invitrogen, cat.#WG1403BX10) for the mu2 blot. For controls, 2 ng of phospho-mu2 or 20 ng mu2/Flag proteins were loaded in the last well of each gel. After SDS-PAGE, samples on each gel were transferred to PVDF membrane using an iBlot and membranes were blocked for one hour in TBST+5% milk, followed by wash 3× for 5-10 min with TBST. Criterion gels were probed with rabbit anti-phospho-mu2 (1:5000; a rabbit polyclonal antibody produced by New England Peptide and affinity purified at Lexicon) in TBST+5% BSA, whereas, NuPAGE gels were probed with mouse anti-Flag (1:500; Sigma, cat.#F1804) in TBST+5% milk, and these primary antibodies were incubated overnight at 4° C. on a rocker.

T1 sequence (Q2M2I8 1-863 isoform Q2M2I8-2): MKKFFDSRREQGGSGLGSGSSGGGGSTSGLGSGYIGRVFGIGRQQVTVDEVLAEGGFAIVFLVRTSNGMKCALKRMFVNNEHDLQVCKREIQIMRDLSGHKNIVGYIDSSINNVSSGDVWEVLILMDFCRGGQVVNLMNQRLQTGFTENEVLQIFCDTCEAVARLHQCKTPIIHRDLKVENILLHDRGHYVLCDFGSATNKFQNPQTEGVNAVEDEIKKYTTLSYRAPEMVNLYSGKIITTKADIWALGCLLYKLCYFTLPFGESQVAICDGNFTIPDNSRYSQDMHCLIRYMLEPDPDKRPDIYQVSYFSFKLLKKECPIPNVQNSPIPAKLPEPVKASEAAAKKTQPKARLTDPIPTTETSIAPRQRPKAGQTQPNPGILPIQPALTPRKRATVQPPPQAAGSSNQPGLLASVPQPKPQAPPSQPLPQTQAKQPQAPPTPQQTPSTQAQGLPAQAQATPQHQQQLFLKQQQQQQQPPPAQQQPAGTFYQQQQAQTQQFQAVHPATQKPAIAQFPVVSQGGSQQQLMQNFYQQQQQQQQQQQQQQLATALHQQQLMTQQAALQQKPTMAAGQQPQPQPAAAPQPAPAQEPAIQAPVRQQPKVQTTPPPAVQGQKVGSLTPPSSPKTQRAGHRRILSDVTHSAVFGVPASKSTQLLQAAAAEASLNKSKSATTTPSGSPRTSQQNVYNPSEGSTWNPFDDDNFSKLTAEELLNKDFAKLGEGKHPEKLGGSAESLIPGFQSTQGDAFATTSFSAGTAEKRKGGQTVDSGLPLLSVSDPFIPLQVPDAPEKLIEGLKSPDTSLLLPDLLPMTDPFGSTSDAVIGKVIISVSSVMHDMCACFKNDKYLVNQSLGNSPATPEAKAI

Row | Structure (SMILES) | IC50 [nM]
1 | COc1cnccc1-c1cnc2ccc(NCCCOC(C)(C)C)nn12 [N-(3-(tert-butoxy)propyl)-3-(3-methoxypyridin-4-yl)imidazo[1,2-b]pyridazin-6-amine] | ≤ 1000
2 | CC(C)OC(=O)N(C)CCNc1ccc2ncc(-c3ccccc3F)n2n1 [isopropyl (2-((3-(2-fluorophenyl)imidazo[1,2-b]pyridazin-6-yl)amino)ethyl)(methyl)carbamate] | ≤ 100
3 | COC(=O)N1CCC[C@H]1CNc1ccc2ncc(-c3ccccc3OC)n2n1 [(S)-methyl 2-(((3-(2-methoxyphenyl)imidazo[1,2-b]pyridazin-6-yl)amino)methyl)pyrrolidine-1-carboxylate] | ≤ 100
4 | NCc1ccc(-c2cnc3ccc(NCCC4CCCCC4)nn23)cc1 [3-(4-(aminomethyl)phenyl)-N-(2-cyclohexylethyl)imidazo[1,2-b]pyridazin-6-amine] | ≤ 100
5 | CC(C)OC(=O)N(C)CCNc1ccc2ncc(-c3ccnc(N)c3)n2n1 [isopropyl (2-((3-(2-aminopyridin-4-yl)imidazo[1,2-b]pyridazin-6-yl)amino)ethyl)(methyl)carbamate] | ≤ 100
6 | CCOC(=O)N(CCNc1ccc2ncc(-c3ccncc3OC)n2n1)C(C)C [ethyl isopropyl(2-((3-(3-methoxypyridin-4-yl)imidazo[1,2-b]pyridazin-6-yl)amino)ethyl)carbamate] | ≤ 10
7 | NCc1ccc(-c2cnc3ccc(NCCCCc4ccccc4)nn23)cc1 [3-(4-(aminomethyl)phenyl)-N-(4-phenylbutyl)imidazo[1,2-b]pyridazin-6-amine] | ≤ 100
8 | CN(CCNc1ccc2ncc(-c3ccc(C#N)cc3)n2n1)C(=O)C(C)(C)C [N-(2-((3-(4-cyanophenyl)imidazo[1,2-b]pyridazin-6-yl)amino)ethyl)-N-methylpivalamide] | ≤ 100
9 | NC(=O)c1ccc(-c2cnc3ccc(NCCc4cccc(C(F)(F)F)c4)nn23)cc1 [4-(6-((3-(trifluoromethyl)phenethyl)amino)imidazo[1,2-b]pyridazin-3-yl)benzamide] | ≤ 100
10 | CN(CCNc1ccc2ncc(-c3ccnc(N)c3)n2n1)C(=O)OC(C)(C)C [tert-butyl (2-((3-(2-aminopyridin-4-yl)imidazo[1,2-b]pyridazin-6-yl)amino)ethyl)(methyl)carbamate] | ≤ 10
11 | CC(C)(C)OC(=O)N1CC[C@@H](CNc2ccc3ncc(-c4ccc(CN)cc4)n3n2)C1 [(S)-tert-butyl 3-(((3-(4-(aminomethyl)phenyl)imidazo[1,2-b]pyridazin-6-yl)amino)methyl)pyrrolidine-1-carboxylate] | ≤ 100
12 | NCc1ccc(-c2cnc3ccc(NCCCc4ccccc4F)nn23)cc1 [3-(4-(aminomethyl)phenyl)-N-(3-(2-fluorophenyl)propyl)imidazo[1,2-b]pyridazin-6-amine] | ≤ 100
13 | CC(C)OCCNc1ccc2ncc(-c3ccc(CN)cc3)n2n1 [3-(4-(aminomethyl)phenyl)-N-(2-isopropoxyethyl)imidazo[1,2-b]pyridazin-6-amine] | ≤ 100
14 | CNCCNC(=O)c1ccc(-c2cnc3ccc(NCCCN(C)C(=O)C(C)(C)C)nn23)cc1 [N-(2-(methylamino)ethyl)-4-(6-((3-(N-methylpivalamido)propyl)amino)imidazo[1,2-b]pyridazin-3-yl)benzamide] | ≤ 1000
15 | CCCCNc1ccc2ncc(-c3ccc(CNC(=O)[C@@H](N)CC(C)C)cc3)n2n1 [(S)-2-amino-N-(4-(6-(butylamino)imidazo[1,2-b]pyridazin-3-yl)benzyl)-4-methylpentanamide] | ≤ 100
16 | CN(CCNc1ccc2ncc(-c3ccccc3F)n2n1)C(=O)OC(C)(C)C [tert-butyl (2-((3-(2-fluorophenyl)imidazo[1,2-b]pyridazin-6-yl)amino)ethyl)(methyl)carbamate] | ≤ 100
17 | COc1cnccc1-c1cnc2ccc(NCCN3CCN(C(C)(C)C)C3=O)nn12 [1-(tert-butyl)-3-(2-((3-(3-methoxypyridin-4-yl)imidazo[1,2-b]pyridazin-6-yl)amino)ethyl)imidazolidin-2-one] | ≤ 100
18 | CC(C)OC(=O)N(C)CCNc1ccc2ncc(-c3ccc([C@H]4CCCN4)cc3)n2n1 [(R)-isopropyl methyl(2-((3-(4-(pyrrolidin-2-yl)phenyl)imidazo[1,2-b]pyridazin-6-yl)amino)ethyl)carbamate] | ≤ 100

Next, values leading:

Row | IC50 [nM] | Structure (SMILES)
19 | ≤ 1000 | CCOC(=O)N(C)CCCNc1ccc2ncc(-c3ccc(C(C)=O)s3)n2n1 [ethyl (3-((3-(5-acetylthiophen-2-yl)imidazo[1,2-b]pyridazin-6-yl)amino)propyl)(methyl)carbamate]
20 | ≤ 100 | CCOC(=O)N(C)[C@H]1CCN(c2ccc3ncc(-c4ccc(C)nc4OC)n3n2)C1 [(S)-ethyl (1-(3-(2-methoxy-6-methylpyridin-3-yl)imidazo[1,2-b]pyridazin-6-yl)pyrrolidin-3-yl)(methyl)carbamate]
21 | ≤ 100 | NCc1ccc(-c2cnc3ccc(NCCCc4ccccc4)nn23)cc1 [[3-(4-Aminomethyl-phenyl)-imidazo[1,2-b]pyridazin-6-yl]-(3-phenyl-propyl)-amine]
22 | ≤ 100 | CCc1cnc2ccc(NC[C@@H]3CCCN3C(=O)OC(C)(C)C)nn12 [(S)-tert-butyl 2-(((3-ethylimidazo[1,2-b]pyridazin-6-yl)amino)methyl)pyrrolidine-1-carboxylate]
23 | ≤ 1000 | CCCCNc1ccc2ncc(-c3ccc(CNCCC)cc3)n2n1 [N-butyl-3-(4-((propylamino)methyl)phenyl)imidazo[1,2-b]pyridazin-6-amine]
24 | ≤ 1000 | CCCCNc1ccc2ncc(-c3ccc(C4CCCN4)cc3)n2n1 (centres unmarked) [N-butyl-3-(4-(pyrrolidin-2-yl)phenyl)imidazo[1,2-b]pyridazin-6-amine]
25 | ≤ 1000 | CCCCNc1ccc2ncc(-c3ccc(CN)cc3)n2n1 [3-(4-(Aminomethyl)phenyl)-N-butylimidazo[1,2-b]pyridazin-6-amine]
26 | ≤ 1000 | CCCCNc1ccc2ncc(-c3ccc(CNC(C)C)cc3)n2n1 [N-butyl-3-(4-((isopropylamino)methyl)phenyl)imidazo[1,2-b]pyridazin-6-amine]
27 | ≤ 100 | CN(CCNc1ccc2ncc(-c3cccc(C(N)=O)c3)n2n1)C(=O)OC(C)(C)C [tert-butyl (2-((3-(3-carbamoylphenyl)imidazo[1,2-b]pyridazin-6-yl)amino)ethyl)(methyl)carbamate]
28 | ≤ 100 | NCc1ccc(-c2cnc3ccc(NCCCc4cccc(F)c4)nn23)cc1 [3-(4-(aminomethyl)phenyl)-N-(3-(3-fluorophenyl)propyl)imidazo[1,2-b]pyridazin-6-amine]
29 | ≤ 100 | CN(CCNc1ccc2ncc(-c3ccnc(F)c3)n2n1)C(=O)OC(C)(C)C [tert-butyl (2-((3-(2-fluoropyridin-4-yl)imidazo[1,2-b]pyridazin-6-yl)amino)ethyl)(methyl)carbamate]
30 | ≤ 10 | CC(C)(C)OC(=O)N1CCCC1CCNc1ccc2ncc(-c3ccc(CN)cc3)n2n1 (centres unmarked) [tert-butyl 2-(2-((3-(4-(aminomethyl)phenyl)imidazo[1,2-b]pyridazin-6-yl)amino)ethyl)pyrrolidine-1-carboxylate]
31 | ≤ 100 | COc1cnccc1-c1cnc2ccc(NCCC(C)C)nn12 [N-isopentyl-3-(3-methoxypyridin-4-yl)imidazo[1,2-b]pyridazin-6-amine]
32 | ≤ 100 | CN(CCNc1ccc2ncc(-c3ccc(CC#N)cc3)n2n1)C(=O)OC(C)(C)C [tert-butyl (2-((3-(4-(cyanomethyl)phenyl)imidazo[1,2-b]pyridazin-6-yl)amino)ethyl)(methyl)carbamate]

— patent US8969565B2, “Imidazo[1,2-b]pyridazine-based compounds, compositions comprising them, and methods of their use” (Lexicon Pharmaceuticals, Inc., priority 2012, dated 2015)
